Data published in PubChem BioAssay AID248 (DTP/NCI, 2004).
Several values for one entry are separate records, joined by “and”; a condition that tells them apart may be missing. Identical values can stand only once. Inconclusive results and toxic doses are left out. Rule as the data show it: active = T/C of 150% or more; inactive = T/C below 125%.

Tested on: L1210 leukemia ip in BDF1 mice, survival T/C
Test: NCI In Vivo Anticancer Drug Screen. Data for tumor model L1210 Leukemia (intraperitoneal) in B6D2F1 (BDF1) mice
Conditions: endpoint: mean survival time, higher = longer survival
Experimental: The antitumor activity of compounds was measured in mice bearing transplantable tumors. Survival or tumor size were measured and the results are expressed as the measurement made in the treated group (T) divided by the measurement made in the vehicle treated control group (C). The tumor model used in this assay is L1210 Leukemia (intraperitoneal) in B6D2F1 (BDF1) mice

[1] = dose: 25.0 mg/kg/injection, schedule: Q01DX009 (ip), vehicle: Klucel (hydroxypropylcellulose) (HPC)
[2] = dose: 50.0 mg/kg/injection, schedule: Q01DX009 (ip), vehicle: Klucel (hydroxypropylcellulose) (HPC)
[3] = dose: 100.0 mg/kg/injection, schedule: Q01DX009 (ip), vehicle: Klucel (hydroxypropylcellulose) (HPC)
[4] = dose: 200.0 mg/kg/injection, schedule: Q01DX009 (ip), vehicle: Klucel (hydroxypropylcellulose) (HPC)
[5] = dose: 400.0 mg/kg/injection, schedule: Q01DX009 (ip), vehicle: Klucel (hydroxypropylcellulose) (HPC)
[6] = dose: 100.0 mg/kg/injection, schedule: Q04DX002 (ip), vehicle: saline with Tween-80
[7] = dose: 100.0 mg/kg/injection, schedule: Q04DX003 (ip), vehicle: Klucel (hydroxypropylcellulose) (HPC)
[8] = dose: 200.0 mg/kg/injection, schedule: Q04DX003 (ip), vehicle: Klucel (hydroxypropylcellulose) (HPC)
[9] = dose: 400.0 mg/kg/injection, schedule: Q04DX003 (ip), vehicle: Klucel (hydroxypropylcellulose) (HPC)
[10] = dose: 100.0 mg/kg/injection, schedule: Q01DX009 (ip), vehicle: saline
[11] = dose: 100.0 mg/kg/injection, schedule: Q04DX003 (ip), vehicle: saline
[12] = dose: 200.0 mg/kg/injection, schedule: Q01DX009 (ip), vehicle: saline
[13] = dose: 200.0 mg/kg/injection, schedule: Q04DX003 (ip), vehicle: saline
[14] = dose: 400.0 mg/kg/injection, schedule: Q04DX003 (ip), vehicle: saline
[15] = dose: 100.0 mg/kg/injection, schedule: Q04DX003 (ip), vehicle: other
[16] = dose: 200.0 mg/kg/injection, schedule: Q04DX003 (ip), vehicle: other
[17] = dose: 400.0 mg/kg/injection, schedule: Q04DX003 (ip), vehicle: other
[18] = dose: 100.0 mg/kg/injection, schedule: Q04DX002 (ip), vehicle: Klucel (hydroxypropylcellulose) (HPC)
[19] = dose: 200.0 mg/kg/injection, schedule: Q04DX002 (ip), vehicle: Klucel (hydroxypropylcellulose) (HPC)
[20] = dose: 400.0 mg/kg/injection, schedule: Q04DX002 (ip), vehicle: Klucel (hydroxypropylcellulose) (HPC)

Measured: T/C

CC1(C)CN1C1=C(F)C(=O)C(N2CC2(C)C)=C(F)C1=O
inactive: dose: 6.25 mg/kg/injection, schedule: Q04DX003 (ip), vehicle: saline 100 % of control | dose: 12.5 mg/kg/injection, schedule: Q04DX003 (ip), vehicle: saline 104 % of control | dose: 25.0 mg/kg/injection, schedule: Q04DX003 (ip), vehicle: saline 104 % of control

NC(=O)C=C1c2ccccc2-c2ccccc21
inactive: [1] 97 % of control | [2] 94 % of control | [3] 96 % of control | [4] 91 % of control | [5] 89 % of control

O=C(/C=C/c1ccc2c(c1)OCO2)c1ccc2ccccc2c1
inactive: dose: 100.0 mg/kg/injection, schedule: Q04DX002 (ip), vehicle: gum acacia 103 % of control | dose: 200.0 mg/kg/injection, schedule: Q04DX002 (ip), vehicle: gum acacia 96 % of control | dose: 400.0 mg/kg/injection, schedule: Q04DX002 (ip), vehicle: gum acacia 92 % of control

Cc1ccc(C)c(NC(=O)OC/C=C/c2ccccc2)c1
inactive: [3] 88 % of control | [4] 86 % of control | [5] 86 % of control

CCOP(=O)(CC)C(Cl)(Cl)Cl (stereo not drawn)
inactive: [6] 93 % of control | dose: 200.0 mg/kg/injection, schedule: Q04DX002 (ip), vehicle: saline with Tween-80 90 % of control | dose: 400.0 mg/kg/injection, schedule: Q04DX002 (ip), vehicle: saline with Tween-80 93 % of control

Cc1cc(O)c(N=Nc2ccccc2)cc1C
inactive: [3] 102 % of control | [7] 101 % of control | [4] 96 % of control | [8] 96 % of control | [5] 96 % of control | [9] 92 % of control

O=S1(=O)CCCCC1c1ccccc1 (stereo not drawn)
inactive: dose: 100.0 mg/kg/injection, schedule: Q01DX001 (ip), vehicle: saline 87 % of control | [10] 98 % of control | [11] 122 % of control | dose: 200.0 mg/kg/injection, schedule: Q01DX001 (ip), vehicle: saline 95 % of control | [12] 87 % of control | [13] 97 % of control | dose: 400.0 mg/kg/injection, schedule: Q01DX001 (ip), vehicle: saline 93 % of control | [14] 98 % of control

CCOC(=O)c1ccc2c(c1)C(=O)c1cc([N+](=O)[O-])ccc1-2
inactive: dose: 100.0 mg/kg/injection, schedule: Q01DX001 (ip), vehicle: carboxymethylcellulose (CMC) 96 % of control | dose: 200.0 mg/kg/injection, schedule: Q01DX001 (ip), vehicle: carboxymethylcellulose (CMC) 96 % of control | dose: 400.0 mg/kg/injection, schedule: Q01DX001 (ip), vehicle: carboxymethylcellulose (CMC) 96 % of control

NC(CC(O)C(=O)O)C(=O)O (stereo not drawn)
inactive: dose: 12.5 mg/kg/injection, schedule: Q04DX002 (ip), vehicle: saline 95 % of control | dose: 25.0 mg/kg/injection, schedule: Q04DX002 (ip), vehicle: saline 106 % of control and 96 % of control | dose: 50.0 mg/kg/injection, schedule: Q04DX002 (ip), vehicle: saline 106 % of control and 96 % of control | dose: 100.0 mg/kg/injection, schedule: Q01DX001 (ip), vehicle: saline with Tween-80 93 % of control | dose: 100.0 mg/kg/injection, schedule: Q04DX002 (ip), vehicle: saline 101 % of control | dose: 200.0 mg/kg/injection, schedule: Q01DX001 (ip), vehicle: saline with Tween-80 97 % of control | dose: 400.0 mg/kg/injection, schedule: Q01DX001 (ip), vehicle: saline with Tween-80 87 % of control

CCCCS(=O)(=O)F
inactive: [6] 93 % of control

Cc1cc2c(c(=O)n1C)COC2=O
inactive: [15] 100 % of control | [16] 100 % of control | [17] 98 % of control

CC(=O)c1ccc(-c2ccccc2)cc1
inactive: dose: 100.0 mg/kg/injection, schedule: Q01DX009 (ip), vehicle: saline with Tween-80 91 % of control | dose: 200.0 mg/kg/injection, schedule: Q01DX009 (ip), vehicle: saline with Tween-80 93 % of control | dose: 400.0 mg/kg/injection, schedule: Q01DX009 (ip), vehicle: saline with Tween-80 96 % of control

CCCCCCCCCCCCCCCCOc1ccc(C=Nc2ccc(C)cc2)cc1
inactive: [7] 103 % of control | [8] 97 % of control | [9] 104 % of control

O=C(Nc1ccc(Cl)cc1C(=O)c1ccccc1)c1ccc([N+](=O)[O-])cc1
inactive: [18] 89 % of control | [19] 95 % of control | [20] 92 % of control

C[CH2][Sn]([Cl])([CH2]C)[O][Sn]([Cl])([CH2]C)[CH2]C
inactive: dose: 3.12 mg/kg/injection, schedule: Q04DX003 (ip), vehicle: saline with Tween-80 100 % of control | dose: 6.25 mg/kg/injection, schedule: Q04DX003 (ip), vehicle: saline with Tween-80 100 % of control | dose: 12.5 mg/kg/injection, schedule: Q04DX003 (ip), vehicle: saline with Tween-80 106 % of control

CC(CC(=O)C(F)(F)F)=NCC(C)N=C(C)CC(=O)C(F)(F)F (stereo not drawn)
inactive: dose: 100.0 mg/kg/injection, schedule: Q01DX001 (ip), vehicle: other 101 % of control | [15] 115 % of control | dose: 200.0 mg/kg/injection, schedule: Q01DX001 (ip), vehicle: other 86 % of control | [16] 105 % of control | dose: 400.0 mg/kg/injection, schedule: Q01DX001 (ip), vehicle: other 97 % of control | [17] 111 % of control

O=S(=O)(c1cc(Cl)c(O)c(Cl)c1)c1cc(Cl)c(O)c(Cl)c1
inactive: [1] 92 % of control | [2] 96 % of control | [3] 95 % of control and 109 % of control

CN(Cc1ccccc1)C(=O)NC(C)(C)C
inactive: [18] 121 % of control | [19] 102 % of control | [20] 105 % of control

Cc1cc(C)cc(-n2nnc3ccccc3c2=O)c1
inactive: [3] 102 % of control | [11] 91 % of control | [4] 98 % of control | [13] 93 % of control | [5] 101 % of control | [14] 88 % of control

COC(=O)CCCCn1ccc(=O)[nH]c1=O
inactive: [18] 100 % of control | [19] 104 % of control | [20] 100 % of control

O=C1OC(c2ccccc2)=NC1c1ccccc1 (stereo not drawn)
inactive: [10] 95 % of control | dose: 100.0 mg/kg/injection, schedule: Q04DX003 (ip), vehicle: carboxymethylcellulose (CMC) 101 % of control | [12] 97 % of control | dose: 200.0 mg/kg/injection, schedule: Q04DX003 (ip), vehicle: carboxymethylcellulose (CMC) 95 % of control | dose: 400.0 mg/kg/injection, schedule: Q01DX009 (ip), vehicle: saline 97 % of control | dose: 400.0 mg/kg/injection, schedule: Q04DX003 (ip), vehicle: carboxymethylcellulose (CMC) 97 % of control

CS(=O)(=O)OCCN(CCOS(C)(=O)=O)c1ccc(C=Nc2cc(Cl)c(O)c(Cl)c2)cc1
inactive: dose: 20.0 mg/kg/injection, schedule: Q04DX003 (ip), vehicle: Klucel (hydroxypropylcellulose) (HPC) 107 % of control | dose: 40.0 mg/kg/injection, schedule: Q04DX003 (ip), vehicle: Klucel (hydroxypropylcellulose) (HPC) 120 % of control | dose: 80.0 mg/kg/injection, schedule: Q04DX003 (ip), vehicle: Klucel (hydroxypropylcellulose) (HPC) 86 % of control | [7] 110 % of control
